In patent publication US12421210B2, “Fused bicyclic heterocycles as therapeutic agents” (NEW YORK UNIVERSITY, priority 2018, dated 2025):
Read-outs that look alike come from different tables or passages of the source.

Target: human NAMPT enzyme (His-hNAMPT) (Homo sapiens (Human), UniProt P43490)
Experiment: NAMPT enzymatic inhibition assay (fluorescence, NADH product)
Assay type: biochemical
Method: The compounds were then diluted 20 fold in an intermediate dilution to 5% DMSO and water. Finally 10 μL of each compound was added to the assay plate, in duplicate, with highest concentration at 30 μM and the lowest at 0.001 μM in a final volume of 50 μL and 1% DMSO concentration. Each assay also tested, in parallel, two reference compounds, FK866 and GMX1778, with highest concentration at 10 μM and lowest at 0.0003 μM. 200 ng of human NAMPT enzyme (His-hNAMPT obtained from E. coli expression system) diluted in […] (tris-buffered saline-Polysorbate 20) 1× was added to each well in a volume of 10 μL and the compounds were incubated with the enzyme at room temperature for 20 minutes. After the incubation, 30 μL of master mixture were added to each well. The master mixture contained: 50 mM Tris-HCl, pH 8.0, 12.5 mM MgCl2, 20 μM nicotinamide, 40 μM phosphoribosyl pyrophosphate (PRPP), 20 μM adenosine triphosphate (ATP), 30 μg/mL of alcohol dehydrogenase, 10 μg/mL of NMNAT, 1.5% alcohol, 1 mM dithiothreitol (DTT), 0.02% bovine serum albumin (BSA), 0.01% Tween 20. The reaction was performed at 30° C. for 60 minutes. Fluorescence intensity was measured at an excitation of 340 nm and an emission of 460 nm using a Tecan Infinite M1000 microplate reader. The fluorescence values indicated increase of NADH product.
Enzyme activity assay was performed in duplicate at each concentration. The fluorescence data was analyzed and compared. In the absence of the compound, the intensity (Ce) in each data set was defined as 100% activity. In the absence of enzyme, the intensity (C0) in each data set was defined as 0% activity. The percent activity in the presence of each compound was calculated according to the following equation: % activity=(C−C0)/(Ce−C0), where C is the fluorescence in the presence of the compound.
The % activity vs. compound concentrations were then plotted using non-linear regression analysis of Sigmoidal dose-response curve generated with the equation Y=B+(T−B)/1+10^((Log EC50-X)×Hill Slope), where Y is percent activity, B is minimum percent activity, T is maximum percent activity, X is logarithm of compound and Hill Slope=slope factor or Hill coefficient.

[1] = [HDB], read-out: NAMPT IC50 (μM) [HDB]
[2] = [BPS], read-out: NAMPT IC50 (μM) [BPS]

Chain of human NAMPT enzyme (His-hNAMPT) (P43490 whole entry): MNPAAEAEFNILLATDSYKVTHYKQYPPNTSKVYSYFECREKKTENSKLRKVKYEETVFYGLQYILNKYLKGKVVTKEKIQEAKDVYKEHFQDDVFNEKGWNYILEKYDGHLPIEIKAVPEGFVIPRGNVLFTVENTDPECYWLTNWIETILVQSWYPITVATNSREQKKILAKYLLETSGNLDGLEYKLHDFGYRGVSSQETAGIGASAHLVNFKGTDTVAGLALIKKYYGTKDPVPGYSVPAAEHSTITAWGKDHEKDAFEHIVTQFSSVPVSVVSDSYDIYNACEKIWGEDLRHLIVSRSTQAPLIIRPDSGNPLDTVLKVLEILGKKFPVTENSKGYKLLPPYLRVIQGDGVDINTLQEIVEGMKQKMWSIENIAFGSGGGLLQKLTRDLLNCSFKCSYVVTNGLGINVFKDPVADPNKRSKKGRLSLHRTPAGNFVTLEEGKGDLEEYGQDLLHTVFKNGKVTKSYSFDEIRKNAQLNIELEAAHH

Row | IC50 [1] | IC50 [2] | SMILES
1 | < 0.01 µM |  | O=C(/C=C/c1cccnc1)NCC[C@@H]1[C@H]2CN(Cc3cncnc3)C[C@@H]12 [Example 298, (E)-3-(pyridin-3-yl)-N-(2-((1R,5S,6s)-3-(pyrimidin-5-ylmethyl)-3-azabicyclo[3.1.0]hexan-6-yl)ethyl)acrylamide]
2 | < 0.01 µM |  | NC(=O)c1cccc(C(=O)N2C[C@@H]3[C@@H](CCNC(=O)/C=C/c4cccnc4)[C@@H]3C2)c1 [Example 115, 3-((1R,5S,6s)-6-(2-((E)-3-(pyridin-3-yl)acrylamido)ethyl)-3-azabicyclo[3.1.0]hexane-3-carbonyl)benzamide]
3 |  | 0.5 to 0.99 µM | O=C(NCC[C@@H]1[C@H]2CN(c3ccccc3)C(=O)[C@@H]12)c1cc2ccncc2o1 (racemic) [Example 260, N-(2-((1R,5S,6S)-2-oxo-3-phenyl-3-azabicyclo[3.1.0]hexan-6-yl)ethyl)furo[2,3-c]pyridine-2-carboxamide and N-(2-((1S,5R,6R)-2-oxo-3-phenyl-3-azabicyclo[3.1.0]hexan-6-yl)ethyl)furo[2,3-c]pyridine-2-carboxamide]
4 | 0.01 to 0.49 µM |  | O=C(/C=C/c1cccnc1)NCC[C@@]1(F)[C@@H]2CN(Cc3ccccc3)C[C@@H]21 [Example 289, (E)-N-(2-((1R,5S,6r)-3-benzyl-6-fluoro-3-azabicyclo[3.1.0]hexan-6-yl)ethyl)-3-(pyridin-3-yl)acrylamide]
5 | < 0.01 µM |  | O=C(/C=C/c1cccnc1)NCC[C@@H]1[C@H]2CN(c3ncc(F)c(Cl)n3)C[C@@H]12 [Example 188, (E)-N-(2-((1R,5S,6s)-3-(4-chloro-5-fluoropyrimidin-2-yl)-3-azabicyclo[3.1.0]hexan-6-yl)ethyl)-3-(pyridin-3-yl)acrylamide]
6 | 0.01 to 0.49 µM |  | O=C(/C=C/c1cccnc1)NCC[C@@H]1[C@H]2CN(Cc3cnc(Cl)nc3)C[C@@H]12 [Example 316]
7 |  | 0.01 to 0.49 µM | O=C(NCC[C@@H]1[C@H]2CN(C(=O)CC3CCOCC3)C[C@@H]12)c1cc2cnccc2[nH]1 [Example 112, N-(2-((1R,5S,6s)-3-(2-(tetrahydro-2H-pyran-4-yl)acetyl)-3-azabicyclo[3.1.0]hexan-6-yl)ethyl)-1H-pyrrolo[3,2-c]pyridine-2-carboxamide]
8 | 0.01 to 0.49 µM |  | CC(c1ccccn1)N1C[C@@H]2[C@@H](CCNC(=O)/C=C/c3cccnc3)[C@@H]2C1 (stereo partly drawn) [Example 321, (E)-N-(2-((1R,5S,6s)-3-(1-(pyridin-2-yl)ethyl)-3-azabicyclo[3.1.0]hexan-6-yl)ethyl)-3-(pyridin-3-yl)acrylamide]
9 | 0.01 to 0.49 µM |  | O=C(/C=C/c1cccnc1)NCC[C@@H]1[C@H]2CN(C(CO)c3ccccc3)C[C@@H]12 (stereo partly drawn) [Example 286, (E)-N-(2-((1R,5S,6s)-3-(2-hydroxy-1-phenylethyl)-3-azabicyclo[3.1.0]hexan-6-yl)ethyl)-3-(pyridin-3-yl)acrylamide]
10 | 0.01 to 0.49 µM |  | NC(=O)c1ccc(N2C[C@@H]3[C@@H](CCNC(=O)/C=C/c4cccnc4)[C@@H]3C2)cc1 [Example 186, 4-((1R,5S,6s)-6-(2-((E)-3-(pyridin-3-yl)acrylamido)ethyl)-3-azabicyclo[3.1.0]hexan-3-yl)benzamide]
11 |  | 0.01 to 0.49 µM | O=C(NCC[C@@H]1[C@H]2CN(C(=O)CC3CCOCC3)C[C@@H]12)c1cc2ccncc2o1 [Example 99, N-(2-((1R,5S,6s)-3-(2-(tetrahydro-2H-pyran-4-yl)acetyl)-3-azabicyclo[3.1.0]hexan-6-yl)ethyl)furo[2,3-c]pyridine-2-carboxamide]
12 |  | 0.01 to 0.49 µM | CC1(OC(=O)N2C[C@@H]3[C@@H](CCNC(=O)/C=C/c4ccc(N)nc4)[C@@H]3C2)COC1 [Example 24, (1R,5S,6s)-3-methyloxetan-3-yl 6-(2-((E)-3-(6-aminopyridin-3-yl)acrylamido)ethyl)-3-azabicyclo[3.1.0]hexane-3-carboxylate]
13 | 0.01 to 0.49 µM |  | O=C(NCC[C@@H]1[C@H]2CN(c3nc(Cl)ncc3F)C[C@@H]12)c1cc2ccncc2o1 [Example 221, N-(2-((1R,5S,6s)-3-(2-chloro-5-fluoropyrimidin-4-yl)-3-azabicyclo[3.1.0]hexan-6-yl)ethyl)furo[2,3-c]pyridine-2-carboxamide]
14 |  | 0.5 to 0.99 µM | O=C(O)c1cccc(C(=O)N2C[C@@H]3[C@@H](CCNC(=O)c4cc5ccncc5o4)[C@@H]3C2)c1 [Example 180, 3-((1R,5S,6s)-6-(2-(furo[2,3-c]pyridine-2-carboxamido)ethyl)-3-azabicyclo[3.1.0]hexane-3-carbonyl)benzoic acid]
15 | < 0.01 µM |  | CC(c1cccnc1)N1C[C@@H]2[C@@H](CCNC(=O)/C=C/c3cccnc3)[C@@H]2C1 (stereo partly drawn) [Example 320, (E)-3-(pyridin-3-yl)-N-(2-((1R,5S,6s)-3-(1-(pyridin-3-yl)ethyl)-3-azabicyclo[3.1.0]hexan-6-yl)ethyl)acrylamide]
16 | 0.01 to 0.49 µM |  | O=C(NCC[C@@H]1[C@H]2CN(c3nc(Cl)ncc3F)C[C@@H]12)c1cc2c(nc3sccn32)s1 [Example 220, N-(2-((1R,5S,6s)-3-(2-chloro-5-fluoropyrimidin-4-yl)-3-azabicyclo[3.1.0]hexan-6-yl)ethyl)thieno[2′,3′:4,5]imidazo[2,1-b]thiazole-2-carboxamide]
17 |  | 0.01 to 0.49 µM | CC(C)(C)OC(=O)N1CCC2CC(CNC(=O)N3Cc4ccncc4C3)CC2C1 (centres unmarked) [Example 272, tert-butyl 6-((2,3-dihydro-1H-pyrrolo[3,4-c]pyridine-2-carboxamido)methyl)hexahydro-1H-cyclopenta[c]pyridine-2(3H)-carboxylate]
18 | < 0.01 µM |  | N#Cc1cccc(N2C[C@@H]3[C@@H](CCNC(=O)/C=C/c4cccnc4)[C@@H]3C2)c1 [Example 136, (E)-N-(2-((1R,5S,6s)-3-(3-cyanophenyl)-3-azabicyclo[3.1.0]hexan-6-yl)ethyl)-3-(pyridin-3-yl)acrylamide]
19 |  | 0.01 to 0.49 µM | N#CN=C(NCC[C@@H]1[C@H]2CN(C(=O)c3ccccc3)C[C@@H]12)Nc1ccncc1 [Example 228, (E)-1-(2-((1R,5S,6s)-3-benzoyl-3-azabicyclo[3.1.0]hexan-6-yl)ethyl)-2-cyano-3-(pyridin-4-yl)guanidine]
20 |  | 1 to 29 µM | O=C(O)c1cccc(C(=O)N2C[C@@H]3[C@@H](CCNC(=O)c4ccc5nccn5c4)[C@@H]3C2)c1 [Example 181, 3-((1R,5S,6s)-6-(2-(imidazo[1,2-a]pyridine-6-carboxamido)ethyl)-3-azabicyclo[3.1.0]hexane-3-carbonyl)benzoic acid]
21 |  | 0.01 to 0.49 µM | O=C(NCC[C@@H]1[C@H]2CN(C(=O)CC3CCOCC3)C[C@@H]12)c1cc(-c2cccnc2)on1 [Example 109, 5-(pyridin-3-yl)-N-(2-((1R,5S,6s)-3-(2-(tetrahydro-2H-pyran-4-yl)acetyl)-3-azabicyclo[3.1.0]hexan-6-yl)ethyl)isoxazole-3-carboxamide]
22 |  | 1 to 29 µM | Nc1ccc(/C=C/C(=O)NC[C@@H]2[C@H]3CN(C(=O)c4ccccc4)C[C@@H]23)cn1 [Example 240, (E)-3-(6-aminopyridin-3-yl)-N-(((1R,5S,6s)-3-benzoyl-3-azabicyclo[3.1.0]hexan-6-yl)methyl)acrylamide]

Row | SMILES | IC50 [1] | IC50 [2]
23 | O=C(/C=C/c1cccnc1)NCC[C@@H]1[C@H]2CN(c3ccc(F)cc3)C(=O)[C@@H]12 (mixture of isomers) [Example 264, (E)-N-(2-((1R,5S,6S)-3-(4-fluorophenyl)-2-oxo-3-azabicyclo[3.1.0]hexan-6-yl)ethyl)-3-(pyridin-3-yl)acrylamide and (E)-N-(2-((1S,5R,6R)-3-(4-fluorophenyl)-2-oxo-3-azabicyclo[3.1.0]hexan-6-yl)ethyl)-3-(pyridin-3-yl)acrylamide] | 0.01 to 0.49 µM | 
